Results as given in patent publication US10258580B2, “Cannabinoids for use in the treatment of neurodegenerative diseases or disorders” (priority 2011, dated 2019).

How the values were obtained:
Aβ-stimulated C6 cells [1] = assay: Nitrite (NO) production in Aβ-stimulated C6 cells, Griess reaction; assay type: cell-based; settings: Aβ (1-42) 1 μg/mL, 24 hours; cannabinoid 10^−9 to 10^−6 M
Description: (§1) The cannabinoids tested were CBG, CBC, and CBDV. The cannabinoids were isolated from cannabis plant material and purified. The cannabinoids were tested at a concentration of 10^−9 to 10^−6 M. The cannabinoids were dissolved in DMSO at the concentration of 10^−2M and then diluted in DMEM to their final concentration.
(§2) Glial cells (C6) were cultured in 10% FBS supplemented DMEM. PC12 neuronal cell were cultured in 10% FBS plus 5% HS supplemented DMEM and SHY-5SY neuronal cells were cultured in 10% FBS supplemented RPMI. Neuronal cells were differentiated with retinoic acid. After 24 hours of starvation glial cells, differentiated PC12 and SHY-5SY neuronal cells were treated with the cannabinoids, CBC, CBG and CBDV, in the presence or absence of 1 μg/mL of Aβ (1-42) for the following 24 hours.
Production of NO was assayed by measuring the amount of nitrite in the culture medium of C6 cells 24 hours after Aβ(1-42) (1 μg/mL) stimulation using a spectrophotometric assay based on Griess reaction.

Aβ-stimulated C6 cells [2] = assay: Aβ-stimulated C6 cell viability/proliferation, MTT assay; assay type: cell-based; settings: Aβ (1-42) 1 μg/mL, 24 hours
Description: as §1, §2
(§3) Cell viability was determined using 3(4,5-dimethylthiazol-2yl)2,5-diphenyl-2H-tetrazolium bromide (MTT) assay which is an assay based on the ability of viable cells to convert MTT in formazan salt.
(§4) The cells were plated in 96-well culture plates at the density of 5×10^3 cells/well and allowed to adhere at 37° C. for 2 hours. Thereafter, the medium was replaced with fresh medium and the cells were treated as above described. After 24 hours 25 μl MTT (5 mg/ml in DMEM) was added to the cells and incubated for additional 3 hours at 37° C. After this time, the cells were lysed and the dark blue crystals solubilized with 125 μl of a solution containing 50% (v/v) N,N, dimethylformamide, 20% (w/v) sodium dodecylsulphate, with an adjusted pH of 4.5. The optical density of each well was measured with a microplate spectrophotometer (Titertek Multiscan MCC/340) equipped with a 620 nm filter.

SH-SY5Y cells [3] = assay: Aβ-induced SH-SY5Y cell viability, MTT assay (Example 1); assay type: cell-based, human; settings: Aβ (1-42) 1 μg/mL
Description: as §1, §2, §3, §4

SH-SY5Y cells [4] = assay: Aβ-induced SH-SY5Y cell viability, MTT/formazan test (Example 2); assay type: cell-based, human; settings: Aβ (1-42) 1 μg/mL, 24 hours; 10^−7 M
Description: (§5) Glial cells (C6) were cultured in 10% FBS supplemented DMEM, and SHY-5SY were cultured in 10% FBS supplemented RPMI. Neuronal cells were differentiated with retinoic acid. After 24 hours of starvation glial cells and SHY-5SY were treated with CBDV (10^−7M), CBD (10^−7 M), CBDVA (10^−7 M), CBDA (10^−7 M) and THCVA (10^−7 M) in presence or absence of Aβ (1-42) (1 μg/mL) for following 24 hours.
as §4, with “Cell activation/viability was determined using 3(4,5-dimethylthiazol-2yl)2,5-diphenyl-2H-tetrazolium bromide (MTT) assay, an assay based on the ability of viable cells to convert MTT in formazan salt. Briefly, the cells” for “The cells”

SH-SY5Y cells [5] = assay: Aβ-induced SH-SY5Y viable cell number, cell counting by TC10 System; assay type: cell-based, human; settings: Aβ (1-42) 1 μg/mL, 24 hours; 10^−7 M
Description: as §5
In another set of experiments cell counting was performed by TC10 System (BIO-RAD), according to manufacturing instruction.

[6] = tested on: neuronal cultures exposed to glutamate; settings: in vitro, pure/synthetic preparations; cited from earlier work
[7] = in vivo, pure CBD; cited from earlier work
iNOS [8] = assay: iNOS mRNA level in Aβ-stimulated C6 cells, semi-quantitative RT-PCR; assay type: cell-based; settings: Aβ (1-42) 1 μg/mL, 24 hours; 10^−7 M
Description: as §2
The mRNA level of iNOS in C6 cells was determined using the semi-quantitative RT-PCR method. The PCR-primers were selected according to appropriate DNA sequences. 15 μl aliquots of PCR products were electrophoretically fractionated through 1% agarose gel containing the fluorescent Vistra green dye. Labelling intensity of the PCR product, which is linear to the amount of DNA, was quantified using the Molecular Imager FX and Quantity One software (Biorad, Milan, Italy).

TNF-alpha [9] = assay: TNF-alpha protein expression in Aβ-stimulated C6 cells, western blot; assay type: cell-based; settings: Aβ (1-42) 1 μg/mL, 24 hours, 10^−7 M
Description: as §5
(§6) Western blot analysis was performed on C6 and SHY-5SY cell lysate. Briefly cells were rapidly homogenized in 60 μl of ice-cold hypotonic lysis buffer [10 mM HEPES, 1.5 mM MgCl2, 10 mM KCl, 0.5 mM phenylmethylsulfonyl fluoride, 1.5 μg/mL soybean trypsin inhibitor, pepstatin A 7 μg/mL, leupeptin 5 μg/mL, 0.1 mM benzamidine, 0.5 mM dithiothreitol (DTT)]. After this time, the cytoplasmic fractions were then obtained by centrifugation at 13000 g for 10 min and protein concentration in the samples was determined with Bio-Rad assay kit according to the manufacturer's instructions. Immunoblotting analysis of iNOS, COX-2, TNF-a, Bcl2 and actin were performed on a cytosolic fraction. Protein concentration was determined and equivalent amounts (50 μg) of each sample were separated under reducing conditions in 12% SDS-polyacrylamide minigel. […] The protein bands were scanned and densitometrically analyzed with a GS-800 imaging densitometer (Bio-Rad Laboratories, Calif., USA).

COX2 = COX2 protein expression in Aβ-stimulated C6 cells, western blot; assay type: cell-based; settings: Aβ (1-42) 1 μg/mL, 24 hours, 10^−7 M
Description: as §5, §6

iNOS [10] = assay: iNOS protein expression in Aβ-stimulated C6 cells, western blot; assay type: cell-based; settings: Aβ (1-42) 1 μg/mL, 24 hours, 10^−7 M
Description: as §5, §6

TNF-alpha [11] = assay: TNF-alpha release in supernatant of Aβ-treated C6 cells, ELISA; assay type: cell-based; settings: Aβ (1-42) 1 μg/mL, 24 hours, 10^−7 M
Description: as §5
ELISA essay was performed on supernatants of cultured cells. Nunc Maxisorp 96-well microtiter plates (Gibco, Paisley, UK) were coated overnight at 4° C. with 1 μg/well of specific monoclonal antibody anti-TNF, diluted in 0.5 M Na2CO3. The wells were washed three times and then blocked with phosphate-buffered saline (PBS) containing 0.05% (v/v) Tween 20 and 0.3% Fetal Bovine Serum (ELISA buffer) for 30 min at room temperature. The standards and samples were added in a 100-μl volume and incubated at 37° C. for 1.5 h. The standard curve was generated using 0.1 ng to 1 μg/well of purified protein, diluted in ELISA buffer. Following four washes in ELISA buffer, monoclonal antibodies were diluted and added to the wells for 1 h. […] The colour reaction was stopped by addition of HCl and optical densities at 490 nm were measured using a microplate reader.

Bcl2 = Bcl2 protein expression in Aβ-treated SH-SY5Y cells, western blot; assay type: cell-based, human; settings: Aβ (1-42) 1 μg/mL, 24 hours, 10^−7 M
Description: as §5, §6

CCCCCc1cc(O)c2c(c1)OC(C)(CCC=C(C)C)C=C2 (stereo not shown) [CBC, cannabichromene]
nitrite production in Aβ-stimulated C6 cells (Aβ-stimulated C6 cells [1]): significantly reduced | Aβ-stimulated C6 cell viability (cell proliferation, MTT) (Aβ-stimulated C6 cells [2]; 10^−7 to 10^−6 M): significantly inhibited cell proliferation | Aβ-induced SH-SY5Y cell death (cell viability, MTT) (SH-SY5Y cells [3]; 10^−6 M (highest concentration used)): effective only at the highest concentration used

C=C(C)[C@@H]1CCC(C)=C[C@H]1c1c(O)cc(CCCCC)cc1O [CBD, cannabidiol]
Aβ SH-SY5Y cell death (viability, MTT/formazan test) (SH-SY5Y cells [4]): able to prevent | Aβ induced SH-SY5Y cell death (viable cell number, cell counting) (SH-SY5Y cells [5]): able to prevent | prevention of glutamate toxicity [6]: could be prevented to some extent | difference between treated and placebo treated animals [7]: failed to find a difference

C=C(C)[C@@H]1CCC(C)=C[C@H]1c1c(O)cc(CCCCC)c(C(=O)O)c1O [CBDA]
Aβ SH-SY5Y cell death (viability, MTT/formazan test) (SH-SY5Y cells [4]): had no effect | Aβ induced SH-SY5Y cell death (viable cell number, cell counting) (SH-SY5Y cells [5]): No significant effect

C=C(C)[C@@H]1CCC(C)=C[C@H]1c1c(O)cc(CCC)cc1O [CBDV, cannabidivarin]
nitrite production in Aβ-stimulated C6 cells (Aβ-stimulated C6 cells [1]): significantly reduced | Aβ-stimulated C6 cell viability (cell proliferation, MTT) (Aβ-stimulated C6 cells [2]; 10^−8 to 10^−6 M): significantly inhibited cell proliferation | iNOS mRNA transcription in Aβ-stimulated C6 cells (iNOS [8]): significant reduction of mRNA transcription | Aβ-induced SH-SY5Y cell death (cell viability, MTT) (SH-SY5Y cells [3]; 10^−9 to 10^−6 M): able to prevent | TNF-alpha protein expression (TNF-alpha [9]): significant reduction | COX2 protein expression (COX2): significant reduction | iNOS protein expression (iNOS [10]): significant reduction | TNF-alpha release in the supernatant of cells (TNF-alpha [11]): significantly reduced | Bcl2 protein expression (Bcl2): significantly restored | Aβ SH-SY5Y cell death (viability, MTT/formazan test) (SH-SY5Y cells [4]): able to prevent | Aβ induced SH-SY5Y cell death (viable cell number, cell counting) (SH-SY5Y cells [5]): able to prevent

C=C(C)[C@@H]1CCC(C)=C[C@H]1c1c(O)cc(CCC)c(C(=O)O)c1O [CBDVA, cannabidivarin acid]
Aβ SH-SY5Y cell death (viability, MTT/formazan test) (SH-SY5Y cells [4]): able to prevent | Aβ induced SH-SY5Y cell death (viable cell number, cell counting) (SH-SY5Y cells [5]): able to prevent

CCCCCc1cc(O)c(C/C=C(\C)CCC=C(C)C)c(O)c1 [CBG, cannabigerol, reference compound]
nitrite production in Aβ-stimulated C6 cells (Aβ-stimulated C6 cells [1]): had no effect | Aβ-stimulated C6 cell viability (cell proliferation, MTT) (Aβ-stimulated C6 cells [2]; 10^−9 to 10^−6 M): had no effect | Aβ-induced SH-SY5Y cell death (cell viability, MTT) (SH-SY5Y cells [3]; 10^−9 to 10^−6 M): had no effect

CCCCCc1cc(O)c2c(c1)OC(C)(C)[C@@H]1CCC(C)=C[C@@H]21 [THC, tetrahydrocannabinol]
prevention of glutamate toxicity [6]: could be prevented to some extent

CCCc1cc2c(c(O)c1C(=O)O)[C@@H]1C=C(C)CC[C@H]1C(C)(C)O2 [THCVA]
Aβ SH-SY5Y cell death (viability, MTT/formazan test) (SH-SY5Y cells [4]): had no effect | Aβ induced SH-SY5Y cell death (viable cell number, cell counting) (SH-SY5Y cells [5]): No significant effect
